Assay [1] addresses Rhodazain (Trypanosoma brucei rhodesiense, UniProt Q95PM0). Nature of the assay: Cysteine protease inhibition, progress curve method, rhodazain. Format: biochemical, Trypanosoma brucei rhodesiensi. Particulars: 10 uM Cbz-Leu-Arg-AMC, 100 mM Na acetate pH 5.5, 5 mM cysteine. How it is done:
Standard assay conditions for the determination of kinetic constants used 10 uM fluorogenic peptide substrate, Cbz-Phe-Arg-AMC for the cysteine proteases from Leishmania spp and Schistosoma Mansoni, Cbz-Leu-Arg-AMC for the cysteine proteases from Plasmodium falciparum and Trypanosoma brucei rhodesiensi, and Ac-Lys-Glu-Lys-Leu-Arg-AMC (4 uM final substrate concentration) for the cysteine protease from Trypoanosoma cruzi, and were determined in 100 mM Na acetate at pH 5.5 containing 5 mM cysteine. Stock substrate solutions were prepared at concentrations of […] in DMSO with 10 uM (4 uM for Ac-Lys-Glu-Lys-Leu-Arg-AMC) final substrate concentration in the assays. The final DMSO concentration was 2% and the final volume was 100 uL. All assays were conducted at ambient temperature. Product progress curves were generated over 20 to 30 minutes following formation of AMC product.
Potential inhibitors were evaluated using the progress curve method. Assays were carried out in the presence of variable concentrations of test compound. Reactions were initiated by addition of enzyme to buffered solutions of inhibitor and substrate. Data analysis was conducted according to one of two procedures depending on the appearance of the progress curves in the presence of inhibitors. For those compounds whose progress curves were linear, apparent inhibition constants (Ki,app) were calculated according to equation 1 (Brandt et al., Biochemitsry, 1989, 28, 140):
v=VmA/[Ka(1+I/Ki,app)+A] (1)
Where v is the velocity of the reaction with maximal velocity Vm, A is the concentration of substrate with Michaelis constant of Ka, and I is the concentration of inhibitor.
[AMC]=vsst+(v0−vss)[1−exp (−kobst)]/kobs (2)
Where [AMC] is the concentration of product formed over time t, v0 is the initial reaction velocity and vss is the final steady state rate. Values for kobs were then analyzed as a linear function of inhibitor concentration to generate an apparent second order rate constant (kobs/inhibitor concentration or kobs/[I]) describing the time-dependent inhibition. A complete discussion of this kinetic treatment has been fully described (Morrison et al., Adv. Enzymol. Relat. Areas Mol. Biol., 1988, 61, 201).
Exemplary inhibition data for the compounds used in the present method collected in accordance with the above-described procedure are listed in Table I.

The target of assay [2] is Cruzain (Trypanosoma cruzi, UniProt P25779). Nature of the assay: Cysteine protease inhibition, progress curve method, cruzain. Format: biochemical. Particulars: 4 uM Ac-Lys-Glu-Lys-Leu-Arg-AMC, 100 mM Na acetate pH 5.5, 5 mM cysteine; read-out: Cruzain Ki. In a few lines: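 Kinetic constants from AMC-release progress curves over 20–30 min at ambient temperature in 100 mM Na acetate pH 5.5, 5 mM cysteine, 2% DMSO; enzyme added last to inhibitor plus substrate. Substrates: 10 uM Cbz-Phe-Arg-AMC (Leishmania, Schistosoma), 10 uM Cbz-Leu-Arg-AMC (falcipain), 4 uM Ac-Lys-Glu-Lys-Leu-Arg-AMC (cruzain). Ki,app from linear curves; time-dependent inhibition as kobs/[I].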

Where two headings read alike, the source gives them in different places.

Sequence of Rhodazain (Q95PM0 entry or part of it): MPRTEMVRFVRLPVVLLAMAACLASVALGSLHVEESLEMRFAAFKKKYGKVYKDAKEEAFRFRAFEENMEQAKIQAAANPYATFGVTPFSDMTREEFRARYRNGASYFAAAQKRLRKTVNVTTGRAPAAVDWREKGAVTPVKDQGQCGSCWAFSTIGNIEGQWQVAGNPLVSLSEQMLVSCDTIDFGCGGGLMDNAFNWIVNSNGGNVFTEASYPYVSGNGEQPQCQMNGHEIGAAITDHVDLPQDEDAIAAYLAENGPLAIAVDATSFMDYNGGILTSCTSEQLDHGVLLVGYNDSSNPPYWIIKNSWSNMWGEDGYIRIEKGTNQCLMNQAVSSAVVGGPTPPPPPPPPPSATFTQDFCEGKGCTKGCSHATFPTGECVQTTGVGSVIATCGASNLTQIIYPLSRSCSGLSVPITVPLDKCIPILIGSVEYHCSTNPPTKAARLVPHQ
Sequence of Cruzain (P25779 123-337): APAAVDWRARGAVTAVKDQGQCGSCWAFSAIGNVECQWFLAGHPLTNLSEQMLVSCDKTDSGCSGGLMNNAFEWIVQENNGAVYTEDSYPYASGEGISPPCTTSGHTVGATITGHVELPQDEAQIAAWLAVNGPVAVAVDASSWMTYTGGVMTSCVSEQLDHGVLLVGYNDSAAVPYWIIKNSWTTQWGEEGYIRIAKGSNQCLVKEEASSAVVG

Take `Cc1cccnc1S(=O)(=O)N1CCC[C@@H](NC(=O)[C@@H](CC(C)C)NC(=O)c2cc3sccc3s2)C(=O)C1` [Example 160, Thieno [3.2-b]thiophene-2-carboxylic acid {(S)-3-methyl-1-[1-(3-methyl-pyridine-2-sulfonyl)-3-oxo-azepan-4-ylcarbamoyl]-butyl}amide]: the values for the Ki in assay [1] (Rhodazain Ki (nM)) and in assay [2] were 6.7 nM and 7.4 nM, respectively.
For `Cc1c(C(=O)N[C@@H](CC(C)C)C(=O)N[C@H]2CCCN(S(=O)(=O)c3ccccc3F)CC2=O)oc2ccccc12` [Example 94, 3-methylbenzofuran-2-carboxylic acid-{(S)-1-[1-(2-fluoro-benzenesulfonyl)-3-oxo-azepan-4-ylcarbamoyl]-3-methyl-butyl}-amide] the same measures were 9.4 nM and 8.6 nM.
For `CC(C)C[C@@H](NC(=O)c1nccc2ccccc12)C(=O)N[C@@H]1CCCN(S(=O)(=O)c2ccccn2)CC1=O` (single isomer, unassigned) [Example 154] the same measures were 4.4 nM and 4.4 nM.
With `Cc1ccc2oc(C(=O)NC(CC(C)C)C(=O)N[C@H]3CCN(S(=O)(=O)c4cccc[n+]4[O-])CCC3=O)c(C)c2c1` (single isomer, unassigned) [Example 206], the Ki (in general, a dissociation constant, usually derived from enzyme kinetics or from competition with a known ligand) turned out to be 4.9 nM in assay [1] (Rhodazain Ki (nM)) and 6.6 nM in assay [2].
The like results for `CC(C)C[C@H](NC(=O)c1cc2cc(O)ccc2o1)C(=O)N[C@H]1CCCN(S(=O)(=O)c2cn(C)cn2)CC1=O` [Example 44, 5-Hydroxy-benzofuran-2-carboxylic acid {(S)-3-methyl-1-[1-(1-methyl-1H-imidazole-4-sulfonyl)-3-oxo-azepan-4-ylcarbamoyl]-butyl}amide] were, in that order, 7.2 nM and 11 nM.
`Cc1c(C(=O)N[C@@H](CC(C)C)C(=O)NC2CCCN(S(=O)(=O)c3ccccn3)CC2=O)oc2ccccc12` (stereo partly drawn) [Example 70, 3-Methyl-benzofuran-2-carboxylic acid {(S)-3-methyl-1-[3-oxo-1-(pyridine-2-sulfonyl)-azepan-4-ylcarbamoyl]-butyl}amide]: the inhibition constant Ki in assay [1] (Rhodazain Ki (nM)) was found to be 5.5 nM; in assay [2] it was 6.6 nM.
In the case of `Cc1c(C(=O)N[C@H](CC(C)C)C(=O)NC2CCCN(S(=O)(=O)c3cccc[n+]3[O-])CC2=O)oc2ccccc12` (stereo partly drawn) [Example 57, 3-Methyl-benzofuran-2-carboxylic acid {(S)-3-methyl-1-[3-oxo-1-(1-oxy-pyridine-2-sulfonyl)-azepan-4-ylcarbamoyl]-butyl}amide], the Ki in assay [1] (Rhodazain Ki (nM)) was 5.4 nM; in assay [2] it was 10 nM.
For `CC(C)CC(NC(=O)c1ccc(F)cc1)C(=O)N[C@@H]1CCCN(S(=O)(=O)c2cccc[n+]2[O-])CC1=O` (stereo partly drawn) [Example 77, 4-Fluoro-{(S)-3-methyl-1-[3-oxo-1-(1-oxy-pyridine-2-sulfonyl)-azepan-4-carbamoyl]-butyl}-benzamide] the same measures were 7.9 nM and 15 nM.
For `CC(C)C[C@@H](NC(=O)c1cc2sccc2s1)C(=O)N[C@@H]1CCCN(S(=O)(=O)c2ccccn2)CC1=O` (single isomer, unassigned) [Example 98] the same measures were 3.9 nM and 5.2 nM.
The like results for `CC(C)C[C@@H](NC(=O)c1ccc(Br)o1)C(=O)N[C@@H]1CCCN(S(=O)(=O)c2ccccn2)CC1=O` (stereo in doubt) [Example 34, 5-Bromo-furan-2-carboxylic acid {(S)-3-methyl-1-[3-oxo-1-(pyridine-2-sulfonyl)-azepan-4-ylcarbamoyl]-butyl}amide] were, in that order, 2.6 nM and 12 nM.
On to `Cc1c(C(=O)N[C@@H](CC(C)C)C(=O)N[C@H]2CCCN(S(=O)(=O)c3nccs3)CC2=O)oc2ccccc12` [Example 126, 3-Methylbenzofuran-2-carboxylic acid {(S)-3-methyl-1-[3-oxo-1-(thiazole-2-sulfonyl)-azepan-4-ylcarbamoyl]-butyl}amide], for which the inhibitory constant (Ki) in assay [1] (Rhodazain Ki (nM)) was found to be 3.8 nM; in assay [2], 4.3 nM.
With `CC(C)C[C@@H](NC(=O)c1ccnc2ccccc12)C(=O)N[C@@H]1CCCN(S(=O)(=O)c2ccccn2)CC1=O` (stereo in doubt) [Example 26, Quinoline-4-carboxylic acid {(S)-3-methyl-1-[3-oxo-1-(pyridine-2-sulfonyl)-azepan-4-ylcarbamoyl]-butyl}amide], the Ki amounted to 8.1 nM in assay [1] (Rhodazain Ki (nM)) and 9.4 nM in assay [2].
Turning to `Cc1ccc2oc(C(=O)N[C@@H](CC(C)C)C(=O)NC3CCCN(S(=O)(=O)c4cccc[n+]4[O-])CC3=O)c(C)c2c1` (stereo partly drawn) [Example 201, 3,5-Dimethyl-benzofuran-2-carboxylic acid {(S)-3-methyl-1-[3-oxo-1-(1-oxy-pyridine-2-sulfonyl)-azepan-4-ylcarbamoyl]-butyl}-amide], the inhibitory constant (Ki) in assay [1] (read-out: Rhodazain Ki) was 7.6 nM; in assay [2], 10 nM.
The like results for `COc1cccc2oc(C(=O)N[C@@H](CC(C)C)C(=O)NC3CCCN(S(=O)(=O)c4cccc[n+]4[O-])CC3=O)c(C)c12` (stereo partly drawn) [Example 208, 4-Methoxy-3-methyl-benzofuran-2-carboxylic acid {(S)-3-methyl-1-[3-oxo-1-(1-oxy-pyridine-2-sulfonyl)-azepan-4-ylcarbamoyl]-butyl}-amide] were, in that order, 4.2 nM and 10 nM.
On to `CC(C)C[C@@H](NC(=O)c1ccc(Br)o1)C(=O)N[C@@H]1CCCN(S(=O)(=O)c2cccc[n+]2[O-])CC1=O` [Example 50, 5-Bromo-furan-2-carboxylic acid {(S)-3-methyl-1-[3-oxo-1-(1-oxy-pyridine-2-sulfonyl)-azepan-4-ylcarbamoyl]-butyl}amide], for which the values for the inhibitory constant (Ki) in assay [1] (Rhodazain Ki (nM)) and in assay [2] were 2.1 nM and 10 nM, respectively.
Consider `CC(C)C[C@@H](NC(=O)c1cc2cc(F)c(F)cc2o1)C(=O)N[C@@H]1CCCN(S(=O)(=O)c2ccccn2)CC1=O` (single isomer, unassigned) [Example 150], for which the inhibitory constant (Ki) was 3.7 nM in assay [1] (Rhodazain Ki (nM)) and 5.4 nM in assay [2].
As to “5,6-Dimethoxy-benzofuran-2-carboxylic acid {(S)-3-methyl-1-[3-oxo-1-(1-oxy-pyridine-2-sulfonyl)-azepan-4-ylcarbamoyl]-butyl}amide [Example 48]”, the values for the Ki in assay [1] (read-out: Rhodazain Ki) and in assay [2] were 4.2 nM and 19 nM, respectively.
`CC(C)C[C@@H](NC(=O)c1cnc2ccccc2n1)C(=O)N[C@@H]1CCCN(S(=O)(=O)c2ccccn2)CC1=O` (stereo in doubt) [Example 30, Quinoxaline-2-carboxylic acid {(S)-3-methyl-1-[3-oxo-1-(pyridine-2-sulfonyl)-azepan-4-ylcarbamoyl]-butyl}amide]: the results for the Ki in assay [1] (Rhodazain Ki (nM)) and in assay [2] were 10 nM and 17 nM, respectively.
`CC(C)C[C@H](NC(=O)c1cnc2ccccc2n1)C(=O)NC1CCCN(C(=O)Nc2ccccc2F)CC1=O` (stereo partly drawn) [Example 217, Quinoxaline-2-carboxylic acid {(S)-1-[1-(2-fluoro-phenylcarbamol)-3-oxo-azepan-4-ylcarbamoyl]-3-methyl-butyl}-amide]: the values for the Ki in assay [1] (Rhodazain Ki (nM)) and in assay [2] were 6.7 nM and 11 nM, respectively.
Regarding `COc1ccc2c(C)c(C(=O)NC(CC(C)C)C(=O)N[C@H]3CCN(S(=O)(=O)c4cccc[n+]4[O-])CCC3=O)oc2c1` (single isomer, unassigned) [Example 211], the figures for the Ki in assay [1] (Rhodazain Ki (nM)) and in assay [2] were 2.8 nM and 10 nM, respectively.
With `CC(C)C[C@@H](NC(=O)c1ccc2ncccc2c1)C(=O)N[C@@H]1CCCN(S(=O)(=O)c2ccccn2)CC1=O` (stereo in doubt) [Example 25, Quinoline-6-carboxylic acid {(S)-3-methyl-1-[3-oxo-1-(pyridine-2-sulfonyl)-azepan-4-ylcarbamoyl]-butyl}amide], the Ki in assay [1] (Rhodazain Ki (nM)) amounted to 8 nM; in assay [2], 8.3 nM.
The like results for `Cc1c(C(=O)N[C@H](CC(C)C)C(=O)N[C@@H]2CCCN(S(=O)(=O)c3ccccn3)CC2=O)oc2ccccc12` (single isomer, unassigned) [Example 97] were, in that order, 2.7 nM and 4 nM.

The values above are taken from patent US20030044399A1, “Method of treatment” (SmithKline Beecham Corporation, priority 1998, published 2003).
